What was measured:
Assay in all cases: relative viability (nuclei count vs DMSO), 5 days (fraction); higher = more cells survive
AZD8055 + Lapatinib = compound: COc1ccc(-c2ccc3c(N4CCOC[C@@H]4C)nc(N4CCOC[C@@H]4C)nc3n2)cc1CO [AZD8055] + CS(=O)(=O)CCNCc1ccc(-c2ccc3ncnc(Nc4ccc(OCc5cccc(F)c5)c(Cl)c4)c3c2)o1 [Lapatinib] (partner 2 µM)
Summary of the method: (§1)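 After 5 days of treatment, lung cancer cells in 1536-well plates were fixed and stained in a single step (final 0.05% Triton X-100, 1% formaldehyde, 1 ug/ml Hoechst) and their nuclei counted on 4× images. Treatment had been applied by pin tool the day after seeding as one drug alone or as a fixed anchor-drug dose with five library-drug doses (not always all listed) in √10 steps. Relative viability is the nuclei count of treated wells divided by that of vehicle wells, and values are medians of duplicate plates.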

AZD8055 + Crizotinib = compound: COc1ccc(-c2ccc3c(N4CCOC[C@@H]4C)nc(N4CCOC[C@@H]4C)nc3n2)cc1CO [AZD8055] + C[C@@H](Oc1cc(-c2cnn(C3CCNCC3)c2)cnc1N)c1c(Cl)ccc(F)c1Cl [Crizotinib] (partner 1 µM)
Summary of the method: as §1

AZD8055 + Tozasertib = compound: COc1ccc(-c2ccc3c(N4CCOC[C@@H]4C)nc(N4CCOC[C@@H]4C)nc3n2)cc1CO [AZD8055] + Cc1cc(Nc2cc(N3CCN(C)CC3)nc(Sc3ccc(NC(=O)C4CC4)cc3)n2)n[nH]1 [Tozasertib] (partner 0.1 µM)
Summary of the method: as §1

AZD8055 + Decitabine = compound: COc1ccc(-c2ccc3c(N4CCOC[C@@H]4C)nc(N4CCOC[C@@H]4C)nc3n2)cc1CO [AZD8055] + Nc1ncn([C@H]2C[C@H](O)[C@@H](CO)O2)c(=O)n1 [Decitabine] (partner 2 µM)
Summary of the method: as §1

Row | Cell Line | relative viability (AZD8055 + Lapatinib; first compound 0.01 µM) | relative viability (AZD8055 + Lapatinib; first compound 0.03162 µM) | relative viability (AZD8055 + Lapatinib; first compound 0.1 µM) | relative viability (AZD8055 + Lapatinib; first compound 0.3162 µM) | relative viability (AZD8055 + Lapatinib; first compound 1 µM) | relative viability (AZD8055 + Crizotinib; first compound 0.01 µM) | relative viability (AZD8055 + Crizotinib; first compound 0.03162 µM) | relative viability (AZD8055 + Crizotinib; first compound 0.1 µM) | relative viability (AZD8055 + Crizotinib; first compound 0.3162 µM) | relative viability (AZD8055 + Crizotinib; first compound 1 µM) | relative viability (AZD8055 + Tozasertib; first compound 0.01 µM) | relative viability (AZD8055 + Tozasertib; first compound 0.03162 µM) | relative viability (AZD8055 + Tozasertib; first compound 0.1 µM) | relative viability (AZD8055 + Tozasertib; first compound 0.3162 µM) | relative viability (AZD8055 + Tozasertib; first compound 1 µM) | relative viability (AZD8055 + Decitabine; first compound 0.01 µM) | relative viability (AZD8055 + Decitabine; first compound 0.03162 µM) | relative viability (AZD8055 + Decitabine; first compound 0.1 µM) | relative viability (AZD8055 + Decitabine; first compound 0.3162 µM) | relative viability (AZD8055 + Decitabine; first compound 1 µM)
1 | 201T | 1.01 | 1.04 | 0.986 | 0.788 | 0.7 | 1.09 | 1.02 | 0.997 | 0.772 | 0.721 | 0.98 | 0.895 | 0.813 | 0.529 | 0.595 | 0.863 | 0.711 | 0.692 | 0.579 | 0.527
2 | A-427 | 1.12 | 1.03 | 0.865 | 0.665 | 0.546 | 1.03 | 0.849 | 0.786 | 0.438 | 0.403 | 0.204 | 0.193 | 0.22 | 0.163 | 0.208 | 0.552 | 0.491 | 0.494 | 0.415 | 0.389
3 | ABC-1 | 1.2 | 0.939 | 1.2 | 0.652 | 0.611 | 1.09 | 1.04 | 0.812 | 0.602 | 0.479 | 0.186 | 0.187 | 0.174 | 0.196 | 0.19 | 1.16 | 1.51 | 0.825 | 0.697 | 0.576
4 | BEN | 0.607 | 0.402 | 0.353 | 0.317 | 0.304 | 0.956 | 0.531 | 0.44 | 0.351 | 0.31 | 0.563 | 0.48 | 0.492 | 0.471 | 0.345 | 0.691 | 0.63 | 0.435 | 0.49 | 0.453
5 | CAL-12T | 0.67 | 0.601 | 0.369 | 0.37 | 0.343 | 0.557 | 0.607 | 0.521 | 0.308 | 0.165 | 0.329 | 0.37 | 0.277 | 0.174 | 0.166 |  |  |  |  | 
6 | COR-L23 | 1.36 | 0.804 | 0.741 | 0.33 | 0.219 | 0.585 | 0.738 | 0.55 | 0.271 | 0.169 | 0.278 | 0.295 | 0.228 | 0.15 | 0.154 | 0.401 | 0.298 | 0.305 | 0.209 | 0.191
7 | COR-L 105 | 0.353 | 0.284 | 0.318 | 0.346 | 0.389 | 0.807 | 0.875 | 0.706 | 0.465 | 0.292 | 0.326 | 0.354 | 0.304 | 0.282 | 0.27 | 0.718 | 0.714 | 0.579 | 0.445 | 0.431
8 | Calu-6 | 1.22 | 0.926 | 0.816 | 0.718 | 0.485 | 1.03 | 0.699 | 0.556 | 0.42 | 0.322 |  |  |  |  |  |  |  |  |  | 
9 | ChaGo-K-1 |  |  |  |  |  | 1.28 | 1.21 | 1.07 | 1.18 | 0.887 | 0.214 | 0.213 | 0.213 | 0.168 | 0.175 | 0.506 | 0.425 | 0.528 | 0.494 | 0.441
10 | EBC-1 | 0.214 | 0.213 | 0.219 | 0.231 | 0.199 | 0.155 | 0.204 | 0.197 | 0.221 | 0.219 |  |  |  |  |  |  |  |  |  | 
11 | EKVX | 0.193 | 0.181 | 0.155 | 0.132 | 0.132 | 1.21 | 0.943 | 0.81 | 0.524 | 0.393 | 0.451 | 0.418 | 0.345 | 0.226 | 0.202 | 0.361 | 0.286 | 0.298 | 0.251 | 0.26
12 | EMC-BAC-2 | 0.867 | 0.777 | 0.74 | 0.403 | 0.406 | 0.764 | 0.706 | 0.612 | 0.337 | 0.344 | 0.279 | 0.299 | 0.249 | 0.257 | 0.255 | 1.02 | 0.875 | 0.817 | 0.498 | 0.505
13 | EPLC-272H | 0.735 | 0.75 | 0.549 | 0.471 | 0.459 | 0.865 | 0.739 | 0.498 | 0.494 | 0.37 | 0.279 | 0.152 | 0.161 | 0.229 | 0.222 | 0.41 | 0.265 | 0.272 | 0.248 | 0.226
14 | H3255 | 0.228 | 0.209 | 0.227 | 0.212 | 0.229 | 1.3 | 0.818 | 0.718 | 0.407 | 0.301 | 0.574 | 0.716 | 0.535 | 0.604 | 0.359 | 0.535 | 0.568 | 0.48 | 0.316 | 0.281
15 | HARA | 0.75 | 0.614 | 0.408 | 0.326 | 0.224 | 1.09 | 1.14 | 0.855 | 0.573 | 0.33 | 0.103 | 0.162 | 0.0997 | 0.0987 | 0.0859 |  | 0.355 | 0.414 | 0.321 | 0.357
16 | HCC-15 | 0.834 | 0.877 | 0.886 | 0.474 | 0.333 | 0.816 | 0.788 | 0.746 | 0.529 | 0.334 | 0.437 | 0.379 | 0.415 | 0.296 | 0.222 | 0.667 | 0.587 | 0.597 | 0.319 | 0.255
17 | HCC-44 | 1.09 | 0.997 | 0.769 | 0.565 | 0.443 | 0.879 | 0.825 | 0.662 | 0.364 | 0.315 | 1.03 | 0.914 | 0.626 | 0.543 | 0.613 | 0.971 | 0.849 | 0.812 | 0.8 | 0.735
18 | HCC-78 | 0.934 | 0.547 | 0.406 | 0.225 | 0.217 | 0.303 | 0.307 | 0.233 | 0.213 | 0.19 | 0.475 | 0.404 | 0.341 | 0.299 | 0.232 | 0.729 | 0.437 | 0.564 | 0.381 | 0.412

Reference: the supplement of paper PMC10307832
